Experimental data published in US20060205599A1, “Herbicide combinations comprising specific sulfonamides” (Bayer CropScience GmbH, priority 2003, published 2006).

How the values were obtained:
Veronica hederifolia = assay: Herbicidal action (field trials), visual scoring of harmful plant; type: in vivo; conditions: field trial, natural outdoor conditions; visual score about 4 weeks after application vs untreated control (100% = all plants died), mean of 2-4 plots; application rate g of active substance/hectare: A 5, B 30, C 250, A + B 5 + 30, A + B + C 5 + 30 + 250
Method: The seeds or rhizome pieces of the harmful plants and the useful plants were laid out or were present in the soil, and they were grown under natural outdoor conditions. Treatment with the active compounds or active compound combinations was carried out […] before and/or after the emergence of the plants, generally at the 2- to 4-leaf stage, in various dosages using a water application rate of 100 to 400 l/ha (converted).
After the application (about 4 weeks after the application), the effectiveness of the active compounds or active compound combinations was scored visually by comparing the treated plots to untreated control plants. During scoring, damage and development of all above-ground parts of plants was assessed. Scoring was carried out using a percentage scale (100% effect=all plants had died; 50% effect=50% of the plants and the green parts of the plants have died; 0% effect=no effect observed=like control plant). In each case, the mean score of 2-4 plots was calculated.
The results are shown in the table below; the effect of the individual application of active compounds (A+B) and C being stated in brackets.

Triticum aestivum = type: in vivo; conditions: field trial, natural outdoor conditions; visual score about 4 weeks after application vs untreated control, mean of 2-4 plots; application rate g of active substance/hectare: A 5, B 30, C 250, A + B 5 + 30, A + B + C 5 + 30 + 250
Method: The seeds or rhizome pieces of the harmful plants and the useful plants were laid out or were present in the soil, and they were grown under natural outdoor conditions.
During scoring, damage and development of all above-ground parts of plants was assessed. […] In each case, the mean score of 2-4 plots was calculated.

| Compound | Veronica hederifolia % effect (Veronica hederifolia) [%] | Triticum aestivum % damage (Triticum aestivum) [%] |
| --- | --- | --- |
| Cc1cc(Cl)ccc1O[C@H](C)C(=O)O [mecoprop-P, (R)-2-(4-chloro-o-tolyloxy)propionic acid] | 35 | 0 |
| CCCOc1nn(C(=O)[N-]S(=O)(=O)c2ccccc2C(=O)OC)c(=O)n1C.[Na+] [propoxycarbazone-sodium] | 30 | 3 |
| COC(=O)c1ccc(CNS(C)(=O)=O)cc1S(=O)(=O)NC(=O)Nc1nc(OC)cc(OC)n1 [mesosulfuron-methyl, methyl 2-[3-(4,6-dimethoxypyrimidin-2-yl)ureidosulfonyl]-4-methanesulfonaminomethyl-benzoate] | 7 | 2 |
